Measurements taken from PubChem BioAssay AID1918998 (Molecular Pharmacology Branch, DTP, NCI, 2023).
One block for each compound: values may come before it.

System: 521955-158-R2-J5-PDC complex spheroid growth
Test: Anticancer human tumor 521955-158-R2-J5-PDC patient-derived pancreatic carcinoma cell line growth inhibition [AhR]
Details: for IC50: curve of first compound; for viability, T/C: stronger effect = lower value
In short: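 Complex tumor spheroids co-cultured with HUVEC and human MSC stroma; AhR antagonists tested in combination with standard-of-care and investigational agents. Top concentration at or near clinical Cmax (else 10 microM), half-log dilutions; growth expressed as percent test/control.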

[1] = second compound 0.1 µM, first compound 0.0316 µM
[2] = second compound 0.1 µM, first compound 0.1 µM
[3] = second compound 0.1 µM, first compound 0.316 µM
[4] = second compound 0.1 µM, first compound 1 µM
[5] = second compound 0.316 µM, first compound 0.0316 µM
[6] = second compound 0.316 µM, first compound 0.1 µM
[7] = second compound 0.316 µM, first compound 0.316 µM
[8] = second compound 0.316 µM, first compound 1 µM
[9] = second compound 1 µM, first compound 0.0316 µM
[10] = second compound 1 µM, first compound 0.1 µM
[11] = second compound 1 µM, first compound 0.316 µM
[12] = second compound 1 µM, first compound 1 µM
[13] = second compound 3.16 µM, first compound 0.0316 µM
[14] = second compound 3.16 µM, first compound 0.1 µM
[15] = second compound 3.16 µM, first compound 0.316 µM
[16] = second compound 3.16 µM, first compound 1 µM
[17] = second compound 10 µM, first compound 0.0316 µM
[18] = second compound 10 µM, first compound 0.1 µM
[19] = second compound 10 µM, first compound 0.316 µM
[20] = second compound 10 µM, first compound 1 µM
[21] = second compound 0.1 µM, first compound 0.00949 µM
[22] = second compound 0.1 µM, first compound 0.03 µM
[23] = second compound 0.1 µM, first compound 0.0949 µM
[24] = second compound 0.1 µM, first compound 0.3 µM
[25] = second compound 0.1 µM, first compound 0.949 µM
[26] = second compound 0.1 µM, first compound 3 µM
[27] = second compound 0.316 µM, first compound 0.00949 µM
[28] = second compound 0.316 µM, first compound 0.03 µM
[29] = second compound 0.316 µM, first compound 0.0949 µM
[30] = second compound 0.316 µM, first compound 0.3 µM
[31] = second compound 0.316 µM, first compound 0.949 µM
[32] = second compound 0.316 µM, first compound 3 µM
[33] = second compound 1 µM, first compound 0.00949 µM
[34] = second compound 1 µM, first compound 0.03 µM
[35] = second compound 1 µM, first compound 0.0949 µM
[36] = second compound 1 µM, first compound 0.3 µM
[37] = second compound 1 µM, first compound 0.949 µM
[38] = second compound 1 µM, first compound 3 µM
[39] = second compound 3.16 µM, first compound 0.00949 µM
[40] = second compound 3.16 µM, first compound 0.03 µM
[41] = second compound 3.16 µM, first compound 0.0949 µM
[42] = second compound 3.16 µM, first compound 0.3 µM
[43] = second compound 3.16 µM, first compound 0.949 µM
[44] = second compound 3.16 µM, first compound 3 µM
[45] = second compound 10 µM, first compound 0.00949 µM
[46] = second compound 10 µM, first compound 0.03 µM
[47] = second compound 10 µM, first compound 0.0949 µM
[48] = second compound 10 µM, first compound 0.3 µM
[49] = second compound 10 µM, first compound 0.949 µM
[50] = second compound 10 µM, first compound 3 µM
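Wherever viability, T/C is given: spheroids mix tumor cells with HUVEC endothelium and human MSC stroma; luminescence taken as viability surrogate after a week of drug exposure.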

- IC50 (second compound 0.1 µM): 88.1 nM
- IC50 (second compound 0.316 µM): 106 nM
- IC50 (second compound 1 µM): 81.3 nM
- IC50 (second compound 3.16 µM): 67.7 nM
- IC50 (second compound 10 µM): 37.8 nM
Structure (SMILES): CC1COCCN1c1cc(-c2ccnn2C)c2ccnc(-c3ccn[nH]3)c2n1 (stereo not given) + CC(CO)NC(=O)c1cc(-c2ccc(Cl)cc2)nn(-c2cnn(C)c2)c1=O
- viability, T/C (second compound 0.1 µM, first compound 0.00316 µM): 91.6%
- viability, T/C (second compound 0.1 µM, first compound 0.01 µM): 121%
- viability, T/C [1]: 98.3%
- viability, T/C [2]: 44.3%
- viability, T/C [3]: 11.2%
- viability, T/C [4]: 14.6%
- viability, T/C (second compound 0.316 µM, first compound 0.00316 µM): 141%
- viability, T/C (second compound 0.316 µM, first compound 0.01 µM): 126%
- viability, T/C [5]: 110%
- viability, T/C [6]: 54.5%
- viability, T/C [7]: 8.67%
- viability, T/C [8]: 13.1%
- viability, T/C (second compound 1 µM, first compound 0.00316 µM): 93%
- viability, T/C (second compound 1 µM, first compound 0.01 µM): 115%
- viability, T/C [9]: 120%
- viability, T/C [10]: 37%
- viability, T/C [11]: 8.65%
- viability, T/C [12]: 13.6%
- viability, T/C (second compound 3.16 µM, first compound 0.00316 µM): 115%
- viability, T/C (second compound 3.16 µM, first compound 0.01 µM): 102%
- viability, T/C [13]: 94.4%
- viability, T/C [14]: 27.6%
- viability, T/C [15]: 8.07%
- viability, T/C [16]: 12.1%
- viability, T/C (second compound 10 µM, first compound 0.00316 µM): 93.5%
- viability, T/C (second compound 10 µM, first compound 0.01 µM): 89.5%
- viability, T/C [17]: 55.8%
- viability, T/C [18]: 17.8%
- viability, T/C [19]: 7.29%
- viability, T/C [20]: 12.2%

- IC50 (second compound 0.1 µM): > 3000 nM
- IC50 (second compound 0.316 µM): > 3000 nM
- IC50 (second compound 1 µM): > 3000 nM
- IC50 (second compound 3.16 µM): > 3000 nM
- IC50 (second compound 10 µM): > 3000 nM
Structure (SMILES): CCN(c1cc(-c2ccc(CN3CCOCC3)cc2)cc(C(=O)NCc2c(C)cc(C)[nH]c2=O)c1C)C1CCOCC1 + CC(CO)NC(=O)c1cc(-c2ccc(Cl)cc2)nn(-c2cnn(C)c2)c1=O
- viability, T/C [21]: 121%
- viability, T/C [22]: 110%
- viability, T/C [23]: 102%
- viability, T/C [24]: 80.8%
- viability, T/C [25]: 81.1%
- viability, T/C [26]: 102%
- viability, T/C [27]: 103%
- viability, T/C [28]: 103%
- viability, T/C [29]: 97.4%
- viability, T/C [30]: 101%
- viability, T/C [31]: 87.6%
- viability, T/C [32]: 86.5%
- viability, T/C [33]: 105%
- viability, T/C [34]: 93.7%
- viability, T/C [35]: 129%
- viability, T/C [36]: 94.5%
- viability, T/C [37]: 72.5%
- viability, T/C [38]: 82.6%
- viability, T/C [39]: 90.6%
- viability, T/C [40]: 79.3%
- viability, T/C [41]: 99.1%
- viability, T/C [42]: 86.7%
- viability, T/C [43]: 74%
- viability, T/C [44]: 91%
- viability, T/C [45]: 91%
- viability, T/C [46]: 96.8%
- viability, T/C [47]: 84.9%
- viability, T/C [48]: 77.4%
- viability, T/C [49]: 74.4%
- viability, T/C [50]: 60.7%

- IC50 (second compound 0.1 µM): 81.6 nM
- IC50 (second compound 0.316 µM): 29.4 nM
- IC50 (second compound 1 µM): 23.3 nM
- IC50 (second compound 3.16 µM): 21.8 nM
- IC50 (second compound 10 µM): 12.5 nM
Structure (SMILES): O=C(C=Cn1cnc(-c2cc(C(F)(F)F)cc(C(F)(F)F)c2)n1)NNc1cnccn1 + CC(CO)NC(=O)c1cc(-c2ccc(Cl)cc2)nn(-c2cnn(C)c2)c1=O
- viability, T/C [21]: 59.2%
- viability, T/C [22]: 58.6%
- viability, T/C [23]: 42.9%
- viability, T/C [24]: 45.7%
- viability, T/C [25]: 39.4%
- viability, T/C [26]: 29.1%
- viability, T/C [27]: 85.6%
- viability, T/C [28]: 44.6%
- viability, T/C [29]: 43.8%
- viability, T/C [30]: 38%
- viability, T/C [31]: 37.7%
- viability, T/C [32]: 23.9%
- viability, T/C [33]: 62.8%
- viability, T/C [34]: 40.3%
- viability, T/C [35]: 38.9%
- viability, T/C [36]: 38.8%
- viability, T/C [37]: 34.6%
- viability, T/C [38]: 21.7%
- viability, T/C [39]: 58.9%
- viability, T/C [40]: 38.7%
- viability, T/C [41]: 50.4%
- viability, T/C [42]: 29.4%
- viability, T/C [43]: 27.6%
- viability, T/C [44]: 25.6%
- viability, T/C [45]: 52.7%
- viability, T/C [46]: 42.1%
- viability, T/C [47]: 27.5%
- viability, T/C [48]: 26.7%
- viability, T/C [49]: 22.4%
- viability, T/C [50]: 17.7%

Continued, compound first:

Structure (SMILES): CC1COCCN1c1cc(C2(S(C)(=N)=O)CC2)nc(-c2ccnc3[nH]ccc23)n1 (stereo not given) + CC(CO)NC(=O)c1cc(-c2ccc(Cl)cc2)nn(-c2cnn(C)c2)c1=O
- IC50 (second compound 0.1 µM): 2440 nM
- IC50 (second compound 0.316 µM): 2220 nM
- IC50 (second compound 1 µM): 2270 nM
- IC50 (second compound 3.16 µM): 2250 nM
- IC50 (second compound 10 µM): 1810 nM
- viability, T/C [1]: 114%
- viability, T/C [2]: 147%
- viability, T/C [3]: 125%
- viability, T/C [4]: 111%
- viability, T/C (second compound 0.1 µM, first compound 3.16 µM): 32.3%
- viability, T/C (second compound 0.1 µM, first compound 10 µM): 17.2%
- viability, T/C [5]: 110%
- viability, T/C [6]: 106%
- viability, T/C [7]: 130%
- viability, T/C [8]: 113%
- viability, T/C (second compound 0.316 µM, first compound 3.16 µM): 21.8%
- viability, T/C (second compound 0.316 µM, first compound 10 µM): 14.1%
- viability, T/C [9]: 113%
- viability, T/C [10]: 108%
- viability, T/C [11]: 103%
- viability, T/C [12]: 125%
- viability, T/C (second compound 1 µM, first compound 3.16 µM): 24.8%
- viability, T/C (second compound 1 µM, first compound 10 µM): 12.7%
- viability, T/C [13]: 114%
- viability, T/C [14]: 117%
- viability, T/C [15]: 146%
- viability, T/C [16]: 105%
- viability, T/C (second compound 3.16 µM, first compound 3.16 µM): 20.6%
- viability, T/C (second compound 3.16 µM, first compound 10 µM): 12.3%
- viability, T/C [17]: 89.2%
- viability, T/C [18]: 123%
- viability, T/C [19]: 110%
- viability, T/C [20]: 85%
- viability, T/C (second compound 10 µM, first compound 3.16 µM): 17.3%
- viability, T/C (second compound 10 µM, first compound 10 µM): 11.8%

Structure (SMILES): Nc1ncn(C2CC(O)C(CO)S2)c(=O)n1 (stereo not given) + CC(CO)NC(=O)c1cc(-c2ccc(Cl)cc2)nn(-c2cnn(C)c2)c1=O
- IC50 (second compound 0.1 µM): > 300 nM
- IC50 (second compound 0.316 µM): > 300 nM
- IC50 (second compound 1 µM): > 300 nM
- IC50 (second compound 3.16 µM): > 300 nM
- IC50 (second compound 10 µM): > 300 nM
- viability, T/C (second compound 0.1 µM, first compound 0.000949 µM): 79.4%
- viability, T/C (second compound 0.1 µM, first compound 0.003 µM): 89.4%
- viability, T/C [21]: 97.9%
- viability, T/C [22]: 89.9%
- viability, T/C [23]: 72.6%
- viability, T/C [24]: 71.2%
- viability, T/C (second compound 0.316 µM, first compound 0.000949 µM): 115%
- viability, T/C (second compound 0.316 µM, first compound 0.003 µM): 107%
- viability, T/C [27]: 107%
- viability, T/C [28]: 116%
- viability, T/C [29]: 94.1%
- viability, T/C [30]: 84.4%
- viability, T/C (second compound 1 µM, first compound 0.000949 µM): 107%
- viability, T/C (second compound 1 µM, first compound 0.003 µM): 107%
- viability, T/C [33]: 106%
- viability, T/C [34]: 108%
- viability, T/C [35]: 73%
- viability, T/C [36]: 99.3%
- viability, T/C (second compound 3.16 µM, first compound 0.000949 µM): 102%
- viability, T/C (second compound 3.16 µM, first compound 0.003 µM): 116%
- viability, T/C [39]: 141%
- viability, T/C [40]: 111%
- viability, T/C [41]: 86.1%
- viability, T/C [42]: 73.1%
- viability, T/C (second compound 10 µM, first compound 0.000949 µM): 73.8%
- viability, T/C (second compound 10 µM, first compound 0.003 µM): 81.3%
- viability, T/C [45]: 102%
- viability, T/C [46]: 76.9%
- viability, T/C [47]: 88.3%
- viability, T/C [48]: 81.5%
